{"source": "paper PMC10342533", "about": "“Novel Tetrazole Derivatives Targeting Tubulin Endowed with Antiproliferative Activity against Glioblastoma Cells” (International Journal of Molecular Sciences, 2023)", "key": {"[1]": {"test_system": "T98G (temozolomide resistant glioblastoma)", "experiment": "Cell growth inhibition, MTT assay, T98G", "type": "cell-based", "conditions": "Homo sapiens"}, "[2]": {"test_system": "HCT8 (colorectal carcinoma)", "experiment": "Cell growth inhibition, MTT assay, HCT8", "type": "cell-based", "conditions": "Homo sapiens"}, "[3]": {"test_system": "MCF7 cells", "experiment": "Cell cycle analysis by flow cytometry (PI), MCF7", "type": "cell-based, human", "conditions": "100 nM", "protocol": "(§1) To assess how tubulin polymerization inhibition and the effects on the microtubule network affect the cell cycle, flow cytometry experiments were performed on HeLa, MCF7, and U87 MG cells 24, 48, and 72 h after treatments with compounds 10, 12, and 14 at 100 nM using propidium iodide (PI) for DNA staining and untreated cells as the negative control.\n(§2) HeLa, MCF7, or U87 MG cells were seeded in 6-well plates (8·10^4 cells/mL, 2 mL/well) and incubated in complete DMEM Medium (see above) at 37 °C and 5% CO2 atmosphere for 24 h. Then, the cells were treated with selected compounds (10, 12, or 14) at 100 nM, and untreated cells were used as negative controls. Cells were collected 24, 48, or 72 h following treatment and fixed overnight in ethanol/PBS (7:3) at 4 °C. After two washes with PBS, cells were suspended in PBS and incubated in darkness overnight with 0.2 mg/mL RNase A (Sigma-Aldrich, St. Louis, MO, USA), 50 µg/mL propidium iodide (Sigma-Aldrich, St. Louis, MO, USA), and Triton 10x at room temperature. A BD Accuri™ C6 Plus Flow Cytometer (BD Biosciences, Franklin Lakes, NJ, USA) cytometer was used to analyze the samples, and BD Accuri™ C6 Software (version 1.0.264.21) was used for data analysis."}, "[4]": {"test_system": "HeLa (cervix epithelioid carcinoma)", "experiment": "Cell growth inhibition, MTT assay, HeLa", "type": "cell-based", "conditions": "Homo sapiens"}, "[5]": {"test_system": "U87 MG cells", "experiment": "Cell cycle analysis by flow cytometry (PI), U87 MG", "type": "cell-based, human", "conditions": "100 nM", "protocol": "as §1, §2"}, "[6]": {"test_system": "HeLa cells", "experiment": "Cell cycle analysis by flow cytometry (PI), HeLa", "type": "cell-based, human", "conditions": "100 nM", "protocol": "as §1, §2"}, "[7]": {"test_system": "HEK-293 (embryonic kidney)", "experiment": "Cell growth inhibition, MTT assay, non-tumor HEK-293", "type": "cell-based", "conditions": "Homo sapiens, HEK293, 72 h, non-tumorigenic cell line", "outline": "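Viability of non-tumor HEK-293 cells determined by MTT 72 h after compound exposure at concentrations from 10^-10 to 10^-2 M; untreated cells served as negative controls. Triplicate measurements, three independent experiments; IC50 values derived from the concentration-response data.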"}, "[8]": {"conditions": "HCT-8, 72 h after drug exposure"}}, "note": "Values joined by “and” are separate entries in the source; they are usually repeats but may differ in a detail not shown here. Equal entries are not always repeated."}
{"smiles": "Cn1cc(C=O)c2cc(-n3nnnc3-c3cc(Cl)nc(Cl)c3)ccc21", "note": "[Compound 12, 5-(5-(2,6-dichloropyridin-4-yl)-1H-tetrazol-1-yl)-1-methyl-1H-indole-3-carbaldehyde]", "values": [{"measurement": "IC50", "setting": "[1]; 72 h, 72 h after drug exposure", "value": 26, "unit": "nM"}, {"measurement": "IC50", "setting": "[1]; mean ± SD, Table S1", "value": "26.2 ± 0.2", "unit": "nM"}, {"measurement": "IC50", "setting": "[2]; [8]", "value": 40, "unit": "nM"}, {"measurement": "IC50", "setting": "[2]; HCT-8, mean ± SD, Table S1", "value": "40.1 ± 0.3", "unit": "nM"}, {"measurement": "G0/G1 population", "setting": "[3]; MCF7, 24 h", "value": 19.4, "unit": "% Cells"}, {"measurement": "G2/M population", "setting": "[3]; MCF7, 24 h", "value": 68.6, "unit": "% Cells"}, {"measurement": "S population", "setting": "[3]; MCF7, 24 h", "value": 7.0, "unit": "% Cells"}, {"measurement": "SubG0/G1 population", "setting": "[3]; MCF7, 24 h", "value": 5.2, "unit": "% Cells"}, {"measurement": "G0/G1 population", "setting": "[3]; MCF7, 48 h", "value": 16.4, "unit": "% Cells"}, {"measurement": "G2/M population", "setting": "[3]; MCF7, 48 h", "value": 62.9, "unit": "% Cells"}, {"measurement": "S population", "setting": "[3]; MCF7, 48 h", "value": 7.9, "unit": "% Cells"}, {"measurement": "SubG0/G1 population", "setting": "[3]; MCF7, 48 h", "value": 13.1, "unit": "% Cells"}, {"measurement": "G0/G1 population", "setting": "[3]; MCF7, 72 h", "value": 15.0, "unit": "% Cells"}, {"measurement": "G2/M population", "setting": "[3]; MCF7, 72 h", "value": 59.1, "unit": "% Cells"}, {"measurement": "S population", "setting": "[3]; MCF7, 72 h", "value": 10.8, "unit": "% Cells"}, {"measurement": "SubG0/G1 population", "setting": "[3]; MCF7, 72 h", "value": "15 % Cells and 15.5 % Cells"}, {"measurement": "IC50", "setting": "[4]; 72 h after drug exposure", "value": 36, "unit": "nM"}, {"measurement": "IC50", "setting": "[4]; mean ± SD, Table S1", "value": "36.4 ± 0.4", "unit": "nM"}, {"measurement": "G0/G1 population", "setting": "[5]; 24 h", "value": 27.3, "unit": "% Cells"}, {"measurement": "G2/M population", "setting": "[5]; 24 h", "value": 37.8, "unit": "% Cells"}, {"measurement": "S population", "setting": "[5]; 24 h", "value": 9.6, "unit": "% Cells"}, {"measurement": "SubG0/G1 population", "setting": "[5]; 24 h", "value": 26.1, "unit": "% Cells"}, {"measurement": "G0/G1 population", "setting": "[5]; 48 h", "value": 11.9, "unit": "% Cells"}, {"measurement": "G2/M population", "setting": "[5]; 48 h", "value": 27.4, "unit": "% Cells"}, {"measurement": "S population", "setting": "[5]; 48 h", "value": 10.3, "unit": "% Cells"}, {"measurement": "SubG0/G1 population", "setting": "[5]; 48 h", "value": 51.1, "unit": "% Cells"}, {"measurement": "G0/G1 population", "setting": "[5]; 72 h", "value": 12.2, "unit": "% Cells"}, {"measurement": "G2/M population", "setting": "[5]; 72 h", "value": 10.0, "unit": "% Cells"}, {"measurement": "S population", "setting": "[5]; 72 h", "value": 7.8, "unit": "% Cells"}, {"measurement": "G0/G1 population", "setting": "[6]; 24 h", "value": 20.0, "unit": "% Cells"}, {"measurement": "G2/M population", "setting": "[6]; 24 h", "value": 57.8, "unit": "% Cells"}, {"measurement": "S population", "setting": "[6]; 24 h", "value": 4.6, "unit": "% Cells"}, {"measurement": "SubG0/G1 population", "setting": "[6]; 24 h", "value": 17.8, "unit": "% Cells"}, {"measurement": "G0/G1 population", "setting": "[6]; 48 h", "value": 18.2, "unit": "% Cells"}, {"measurement": "G2/M population", "setting": "[6]; 48 h", "value": 40.8, "unit": "% Cells"}, {"measurement": "S population", "setting": "[6]; 48 h", "value": 7.8, "unit": "% Cells"}, {"measurement": "SubG0/G1 population", "setting": "[6]; 48 h", "value": 32.5, "unit": "% Cells"}, {"measurement": "G0/G1 population", "setting": "[6]; 72 h", "value": 15.3, "unit": "% Cells"}, {"measurement": "G2/M population", "setting": "[6]; 72 h", "value": 34.0, "unit": "% Cells"}, {"measurement": "S population", "setting": "[6]; 72 h", "value": 5.6, "unit": "% Cells"}, {"measurement": "SubG0/G1 population", "setting": "[6]; 72 h", "value": 45.4, "unit": "% Cells"}, {"measurement": "IC50", "setting": "[7]", "value": 3080, "unit": "nM"}]}
{"smiles": "CSc1cc(-c2nnnn2-c2ccc3c(c2)c(C=O)cn3C)cc(Cl)n1", "note": "[Compound 14, 5-(5-(2-chloro-6-(methylsulfanyl)pyridin-4-yl)-1H-tetrazol-1-yl)-1-methyl-1H-indole-3-carbaldehyde]", "values": [{"measurement": "IC50", "setting": "[1]; 72 h, 72 h after drug exposure", "value": 19, "unit": "nM"}, {"measurement": "IC50", "setting": "[2]; [8]", "value": 29, "unit": "nM"}, {"measurement": "IC50", "setting": "[2]; HCT-8, mean ± SD, Table S1", "value": "29.4 ± 0.2", "unit": "nM"}, {"measurement": "G0/G1 population", "setting": "[3]; MCF7, 24 h", "value": 22.7, "unit": "% Cells"}, {"measurement": "G2/M population", "setting": "[3]; MCF7, 24 h", "value": 66.0, "unit": "% Cells"}, {"measurement": "S population", "setting": "[3]; MCF7, 24 h", "value": 5.9, "unit": "% Cells"}, {"measurement": "SubG0/G1 population", "setting": "[3]; MCF7, 24 h", "value": 5.2, "unit": "% Cells"}, {"measurement": "G0/G1 population", "setting": "[3]; MCF7, 48 h", "value": 16.8, "unit": "% Cells"}, {"measurement": "G2/M population", "setting": "[3]; MCF7, 48 h", "value": 58.4, "unit": "% Cells"}, {"measurement": "S population", "setting": "[3]; MCF7, 48 h", "value": 6.9, "unit": "% Cells"}, {"measurement": "SubG0/G1 population", "setting": "[3]; MCF7, 48 h", "value": 17.9, "unit": "% Cells"}, {"measurement": "G0/G1 population", "setting": "[3]; MCF7, 72 h", "value": 19.1, "unit": "% Cells"}, {"measurement": "G2/M population", "setting": "[3]; MCF7, 72 h", "value": 38.7, "unit": "% Cells"}, {"measurement": "S population", "setting": "[3]; MCF7, 72 h", "value": 8.1, "unit": "% Cells"}, {"measurement": "SubG0/G1 population", "setting": "[3]; MCF7, 72 h", "value": "34 % Cells and 34.6 % Cells"}, {"measurement": "IC50", "setting": "[4]; 72 h after drug exposure", "value": 24, "unit": "nM"}, {"measurement": "IC50", "setting": "[4]; mean ± SD, Table S1", "value": "24.2 ± 0.1", "unit": "nM"}, {"measurement": "G0/G1 population", "setting": "[5]; 24 h", "value": 23.7, "unit": "% Cells"}, {"measurement": "G2/M population", "setting": "[5]; 24 h", "value": 41.3, "unit": "% Cells"}, {"measurement": "S population", "setting": "[5]; 24 h", "value": 8.5, "unit": "% Cells"}, {"measurement": "SubG0/G1 population", "setting": "[5]; 24 h", "value": 27.2, "unit": "% Cells"}, {"measurement": "G0/G1 population", "setting": "[5]; 48 h", "value": 12.5, "unit": "% Cells"}, {"measurement": "G2/M population", "setting": "[5]; 48 h", "value": 32.1, "unit": "% Cells"}, {"measurement": "S population", "setting": "[5]; 48 h", "value": 10.6, "unit": "% Cells"}, {"measurement": "SubG0/G1 population", "setting": "[5]; 48 h", "value": 45.4, "unit": "% Cells"}, {"measurement": "G0/G1 population", "setting": "[5]; 72 h", "value": 11.1, "unit": "% Cells"}, {"measurement": "G2/M population", "setting": "[5]; 72 h", "value": 9.6, "unit": "% Cells"}, {"measurement": "S population", "setting": "[5]; 72 h", "value": 6.9, "unit": "% Cells"}, {"measurement": "G0/G1 population", "setting": "[6]; 24 h", "value": 16.6, "unit": "% Cells"}, {"measurement": "G2/M population", "setting": "[6]; 24 h", "value": 47.0, "unit": "% Cells"}, {"measurement": "S population", "setting": "[6]; 24 h", "value": 3.7, "unit": "% Cells"}, {"measurement": "SubG0/G1 population", "setting": "[6]; 24 h", "value": 32.7, "unit": "% Cells"}, {"measurement": "G0/G1 population", "setting": "[6]; 48 h", "value": 17.1, "unit": "% Cells"}, {"measurement": "G2/M population", "setting": "[6]; 48 h", "value": 34.1, "unit": "% Cells"}, {"measurement": "S population", "setting": "[6]; 48 h", "value": 7.0, "unit": "% Cells"}, {"measurement": "SubG0/G1 population", "setting": "[6]; 48 h", "value": 41.3, "unit": "% Cells"}, {"measurement": "G0/G1 population", "setting": "[6]; 72 h", "value": 9.6, "unit": "% Cells"}, {"measurement": "G2/M population", "setting": "[6]; 72 h", "value": 25.4, "unit": "% Cells"}, {"measurement": "S population", "setting": "[6]; 72 h", "value": 8.1, "unit": "% Cells"}, {"measurement": "SubG0/G1 population", "setting": "[6]; 72 h", "value": 57.4, "unit": "% Cells"}, {"measurement": "IC50", "setting": "[7]", "value": 2270, "unit": "nM"}]}
